Test results: patent US6710055B2, “Disubstituted bicyclic heterocycles, the preparation thereof, and their use as pharmaceutical compositions” (Boehringer Ingelheim Pharma GmbH & Co., KG, priority 1997, dated 2004)
Like-named read-outs stand apart in the source and are kept apart here.

Legend:
[1] = molecular target: T1, Test thrombin (bovine) (Bos taurus, UniProt P00735); assay: Thrombin time in human citrated plasma (Biomatic B10 coagulometer); format: biochemical
T1 construct: purchased Behring Werke, Marburg
Procedure: were investigated as follows for their effects on thrombin time:
Materials: plasma, from human citrated blood.
Test thrombin (bovine), 30U/mL, Behring Werke, Marburg
Diethylbarbiturate acetate buffer, ORWH 60/61, Behring Werke, Marburg
Biomatic B10 coagulometer, Sarstedt
The thrombin time was determined using a Biomatic B10 coagulometer made by Messrs. Sarstedt. As the test substance, 0.1 mL of human citrated plasma and 0.1 mL diethylbarbiturate buffer (DBA buffer) were added to the test strip prescribed by the manufacturer. The mixture was incubated for one minute at 37° C. The clotting reaction was started by the addition of 0.3 U test thrombin in 0.1 mL DBA buffer. The time is measured using the apparatus from the addition of the thrombin up to the clotting of the mixture. Mixtures to which 0.1 mL of DBA buffer were added were used as the controls.

[2] = tested on: thrombocyte aggregation; assay: Inhibitory effect on thrombocyte aggregation; format: cell-based
[3] = tested on: rats; conditions: doses of up to 10 mg/kg i.v.
[4] = concentration at which the thrombin time is double compared with the control, human citrated plasma, 0.3 U test thrombin (bovine), 37° C.

SMILES	Thrombin time (ED200 in μM) [1, 4]	other results
Cn1c(CCc2ccc(C(=N)N)cc2)nc2cc(C(=O)N(CCc3nnn[nH]3)c3ccccc3)ccc21 [F, 1-methyl-2-[2-(4-amidinophenyl)ethyl]benzimidazol-5-yl-carboxylic acid-N-phenyl-N-[2-(1H-tetrazol-5-yl)ethyl]amide]	0.03 µM	–
Cn1c(CNc2ccc(C(=N)N)cc2)nc2cc(C(=O)N(CCC(=O)O)c3ccccc3)ccc21 [D, 1-methyl-2-[N-(4-amidinophenyl)aminomethyl]benzimidazol-5-yl-carboxylic acid-N-phenyl-N-(2-hydroxycarbonylethyl)amide]	–	Thrombin time (ED200 in μM) [1]: 0.03 µM
Cn1c(CCc2ccc(C(=N)N)cc2)nc2cc(C(=O)N(CCCC(=O)O)c3ccccc3)ccc21 [B, 1-methyl-2-[2-(4-amidinophenyl)ethyl]benzimidazol-5-yl-carboxylic acid-N-phenyl-N-(3-hydroxycarbonylpropyl)amide]	0.06 µM	–
N=C(N)c1ccc(NCc2nc3cc(C(=O)N(CCC(=O)O)c4ccccc4)ccc3s2)cc1 [A, 2-[N-(4-amidinophenyl)aminomethyl]benzthiazole-5-carboxylic acid-N-phenyl-N-(2-carboxyethyl)amide]	0.04 µM	–
CCOC(=O)CCN(c1ccccc1)S(=O)(=O)c1ccc2c(c1)nc(CNc1ccc(C(=N)N)cc1)n2C.Cl	–	melting point: 188 to 191 °C
Cn1c(CNc2ccc(C(=N)N)cc2)nc2cc(C(=O)N(CC(=O)O)c3ccccn3)ccc21 [E, 1-methyl-2-[N-(4-amidinophenyl)aminomethyl]benzimidazol-5-yl-carboxylic acid-N-(2-pyridyl)-N-(hydroxycarbonylmethyl)amide]	0.09 µM	–
CN(Cc1nc2cc(C(=O)N(CCC(=O)O)c3ccccc3)ccc2s1)c1ccc(C(=N)N)cc1.Cl [Example 16, 2-[N-(4-amidinophenyl)-N-methylaminomethyl]benzothiazol-5-yl-carboxyiic acid-N-phenyl-N-(2-hydroxycarbonylethyl)amide hydrochloride]	–	inhibitory effect on thrombocyte aggregation [2]: slight inhibitory effect
[H]/N=C(/N)c1ccc(NCc2nc3cc(C(=O)N(CCC(=O)O)c4ccccn4)ccc3n2C)cc1 [G, 1-methyl-2-[N-(4-amidinophenyl)aminomethyl]benzimidazol-5-yl-carboxylic acid-N-(2-pyridyl)-N-(2-hydroxycarbonylethyl)amide]	–	Thrombin time (ED200 in μM) [1]: 0.03 µM; acute toxic side effects [3]: no acute toxic side effects were observed
Cn1c(COc2ccc(C(=N)N)cc2)nc2cc(C(=O)N(CC(=O)O)c3ccccc3)ccc21 [C, 1-methyl-2-[(4-amidinophenyl)oxymethyl]benzimidazol-5-yl-carboxylic acid-N-phenyl-N-(hydroxycarbonylmethyl)amide]	0.15 µM	–
